Assay results: PMC11123773, “Identification of New Substrates and Inhibitors of Human CYP2A7” (Molecules, 2024)
Positions count from the first letter of the chain named.

Key:
Assay in all cases: Diclofenac biotransformation with enzyme bags, LC-MS analysis of hydroxydiclofenac
Assay type in all cases: biochemical
CYP2A7-WT = target: T1, CYP2A7-WT (Homo sapiens, UniProt P20853, D169E/H274R/R311C/V479G); parameters: expressed in transfected cells; host or cells: Schizosaccharomyces pombe strain AA01 (pREP1-CYP2A7-WT in CAD62), permeabilized cells (enzyme bags); settings: by CYP2A7-WT; diclofenac 100 µM
T1 sequence (P20853 1-494 D169E/H274R/R311C/V479G): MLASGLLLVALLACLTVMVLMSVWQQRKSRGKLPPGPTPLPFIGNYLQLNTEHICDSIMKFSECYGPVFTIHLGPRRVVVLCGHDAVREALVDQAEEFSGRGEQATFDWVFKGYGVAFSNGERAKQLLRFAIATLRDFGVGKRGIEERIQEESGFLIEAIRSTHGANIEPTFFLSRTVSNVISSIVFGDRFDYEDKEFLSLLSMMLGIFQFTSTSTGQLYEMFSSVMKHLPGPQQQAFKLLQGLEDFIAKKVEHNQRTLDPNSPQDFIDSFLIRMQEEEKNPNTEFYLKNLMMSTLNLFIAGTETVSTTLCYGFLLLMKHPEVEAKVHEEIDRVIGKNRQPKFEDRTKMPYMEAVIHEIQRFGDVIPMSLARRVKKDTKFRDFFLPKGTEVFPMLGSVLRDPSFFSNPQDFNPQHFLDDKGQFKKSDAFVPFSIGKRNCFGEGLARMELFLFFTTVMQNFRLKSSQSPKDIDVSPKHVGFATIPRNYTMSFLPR
Protocol: (§1) This was performed as described previously with slight modifications. Briefly, fission yeast cells were cultured on EMM plates with 5 µM thiamine for 3 days at 30 °C. A single yeast colony was then transferred to a 10 mL liquid culture of EMM without thiamine and cultured at 30 °C and 230 rpm for 36 h. As the recombinant expression of the human enzymes is controlled by the strong endogenous nmt1 promoter, all subsequent cultures were cultured in the absence of thiamine to keep the promoter in an active state. For each activity assay, 5 × 10^7 cells (stationary growth phase) were transferred to 1.5 mL Eppendorf tubes (Axygen; Silicon Valley, USA), pelleted, and incubated in 1 mL of 0.3% Triton-X100 in Tris-KCl buffer (200 mM KCl, 100 mM Tris-HCl pH 7.8) at room temperature for 60 min at 150 rpm for permeabilization. After three washes with 1 mL NH4HCO3 buffer (50 mM, pH 7.8), cells were resuspended in phosphate buffer (pH 7.4) and then the substrate and the NADPH regeneration system were added to a total volume of 50 µL. The samples were incubated at 37 °C and 1000 rpm for 3 h. For LC-MS analysis, the reaction mixture was extracted with an equal amount of ethyl acetate by centrifugation, and the supernatants were stored at −20 °C until use.
(§2) Analytical procedures were performed on an Agilent HPLC/microTOF-Q II instrument equipped with a Kromasil 100-5-C18 (dimensions 4.6 × 250 mm). […]

CYP2A6*1 = target: T2, CYP2A6*1 (Homo sapiens, UniProt P11509); parameters: expressed in transfected cells; host or cells: Schizosaccharomyces pombe strain RAJ122 (pREP1-CYP2A6*1 in CAD62), permeabilized cells (enzyme bags); settings: by CYP2A6*1; diclofenac 100 µM
T2 sequence (P11509 1-494): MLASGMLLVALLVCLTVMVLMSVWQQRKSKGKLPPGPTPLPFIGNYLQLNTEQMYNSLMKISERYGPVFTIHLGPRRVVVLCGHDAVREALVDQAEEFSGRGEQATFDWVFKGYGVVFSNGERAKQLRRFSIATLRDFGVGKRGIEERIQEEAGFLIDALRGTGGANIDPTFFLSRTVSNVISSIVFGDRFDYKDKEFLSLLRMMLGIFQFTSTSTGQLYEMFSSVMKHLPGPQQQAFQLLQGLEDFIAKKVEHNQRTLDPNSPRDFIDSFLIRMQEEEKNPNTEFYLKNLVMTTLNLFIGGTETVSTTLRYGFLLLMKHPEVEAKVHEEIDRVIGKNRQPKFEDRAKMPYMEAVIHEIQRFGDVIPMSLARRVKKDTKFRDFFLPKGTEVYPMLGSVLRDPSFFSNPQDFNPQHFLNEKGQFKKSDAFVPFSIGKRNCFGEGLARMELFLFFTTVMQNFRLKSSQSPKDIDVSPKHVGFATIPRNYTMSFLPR
Protocol: as §1, §2

CYP2A7*1 = target: T3, CYP2A7*1 (Homo sapiens, UniProt P20853); parameters: expressed in transfected cells; host or cells: Schizosaccharomyces pombe strain RAJ127 (pREP1-CYP2A7*1 in CAD62), permeabilized cells (enzyme bags); settings: by CYP2A7*1; diclofenac 100 µM
T3 sequence (P20853 1-494): T1 sequence (P20853 1-494 D169E/H274R/R311C/V479G) with E169D, R274H, C311R, G479V
Protocol: as §1, §2

SMILES: O=C(O)Cc1ccccc1Nc1c(Cl)cccc1Cl [diclofenac]
- Metabolization of diclofenac (hydroxydiclofenac formation) (CYP2A7-WT): produced a diclofenac metabolite that had the mass of hydroxydiclofenac
- Metabolization of diclofenac (hydroxydiclofenac formation) (CYP2A6*1): produced a diclofenac metabolite that had the mass of hydroxydiclofenac
- Metabolization of diclofenac (hydroxydiclofenac formation) (CYP2A7*1): produced a diclofenac metabolite that had the mass of hydroxydiclofenac
